Measurements from patent US10053431B2, “Tetrahydro-benzodiazepinones” (priority 2013, dated 2018).
Counter-ions that a name gives are not always drawn. Like-named read-outs stand apart in the source and are kept apart here. Blank lines part the entries; values can stand above or below the compound they belong to.

Key:
[1] = biological target: BIR3 domain of XIAP (Homo sapiens (Human), UniProt P98170); experiment: TR-FRET assay for BIR3 (inhibition of binding of XIAP BIR3 domain to SMAC-derived Peptide A); conditions: 6x His-tagged BIR3 domain (aa 241-356 of XIAP) 10 nM, Peptide A 20 nM, TR-FRET
Chain of BIR3 domain of XIAP (P98170 241-356 with tags or gaps limits assumed): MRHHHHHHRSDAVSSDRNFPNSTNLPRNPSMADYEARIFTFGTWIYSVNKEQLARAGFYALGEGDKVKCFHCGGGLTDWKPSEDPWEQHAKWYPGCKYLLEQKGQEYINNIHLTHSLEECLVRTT

[2] = biological target: BIR2 domain of XIAP (Homo sapiens (Human), UniProt P98170, C202A/C213G); experiment: TR-FRET assay for BIR2 (inhibition of binding of XIAP BIR2 domain to SMAC-derived Peptide A)
Chain of BIR2 domain of XIAP (P98170 124-240 with tags or gaps C202A/C213G limits assumed): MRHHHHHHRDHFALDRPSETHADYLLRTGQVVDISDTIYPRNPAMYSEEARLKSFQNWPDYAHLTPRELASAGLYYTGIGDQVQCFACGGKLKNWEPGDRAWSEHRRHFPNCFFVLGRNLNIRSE

[3] = 6x His-tagged BIR2 domain (aa 124-240 of XIAP) 10 nM, Peptide A 20 nM, TR-FRET, read-out: IC50 BIR2

- IC50 [1]: > 54800 nM
- IC50 [2, 3]: 37 nM
SMILES: CN[C@@H](C)C(=O)N[C@H]1CN(C(=O)c2ccc(OC)cc2)c2ccccc2N(Cc2c(C)ccc3ccccc23)C1=O [Example 96l]

- IC50 [1]: > 54800 nM
- IC50 [2, 3]: 100 nM
SMILES: CN[C@@H](C)C(=O)N[C@H]1CN(C(=O)c2ccc(C(=O)O)cc2)c2ccccc2N(Cc2c(C)ccc3ccccc23)C1=O [Example 97, 4-[(S)-3-((S)-2-Methylamino-propionylamino)-5-(2-methyl-naphthalen-1-ylmethyl)-4-oxo-2,3,4,5-tetrahydro-benzo[b][1,4]diazepine-1-carbonyl]-benzoic acid hydrochloride]

- IC50 [1]: > 54800 nM
- IC50 [2, 3]: 188 nM
SMILES: CN[C@@H](C)C(=O)N[C@H]1CN(S(=O)(=O)NC)c2ccccc2N(Cc2c(C)ccc3ccccc23)C1=O [Example 98b]

- IC50 [1]: 29000 nM
- IC50 [2, 3]: 182 nM
SMILES: CN[C@@H](C)C(=O)N[C@H]1CN(S(=O)(=O)c2ccc([N+](=O)[O-])cc2)c2ccccc2N(Cc2c(C)ccc3ccccc23)C1=O [Example 98d]

- IC50 [1]: 31600 nM
- IC50 [2, 3]: 133 nM
SMILES: CN[C@@H](C)C(=O)N[C@H]1CN(S(=O)(=O)c2ccccc2)c2ccccc2N(Cc2c(C)ccc3ccccc23)C1=O [Example 98e]

- IC50 [1]: > 50000 nM
- IC50 [2, 3]: 177 nM
SMILES: CN[C@@H](C)C(=O)N[C@H]1CN(S(=O)(=O)c2ccc(OC)cc2)c2ccccc2N(Cc2c(C)ccc3ccccc23)C1=O [Example 98f]

- IC50 [1]: 53400 nM
- IC50 [2, 3]: 36 nM
SMILES: CN[C@@H](C)C(=O)N[C@H]1CN(C(=O)c2ccccc2C(C)=O)c2ccccc2N(Cc2c(C)ccc3ccccc23)C1=O [Example 101, (S)—N—[(S)-5-(2-Acetyl-benzoyl)-1-(2-methyl-naphthalen-1-ylmethyl)-2-oxo-2,3,4,5-tetrahydro-1H-benzo[b][1,4]diazepin-3-yl]-2-methylamino-propionamide]

- IC50 [1]: > 54800 nM
- IC50 [2, 3]: 295 nM
SMILES: COc1ccc2ccccc2c1CN1C(=O)C(NC(=O)[C@H](C)N)C(=O)N(CC23CC4CC(CC(C4)C2)C3)c2ccccc21 (stereo partly drawn) [Example 111, (2S)-N-[5-(1-adamantylmethyl)-1-[(2-methoxynaphthalen-1-yl)methyl]-2,4-dioxo-1,5-benzodiazepin-3-yl]-2-aminopropanamide]

- IC50 [1]: > 54800 nM
- IC50 [2, 3]: 324 nM
SMILES: CC[C@H](NC)C(=O)NC1C(=O)N(Cc2c(OC)ccc3ccccc23)c2ccccc2N(CC23CC4CC(CC(C4)C2)C3)C1=O (stereo partly drawn) [Example 113, (2S)-N-[5-(1-adamantylmethyl)-1-[(2-methoxynaphthalen-1-yl)methyl]-2,4-dioxo-1,5-benzodiazepin-3-yl]-2-(methylamino)butanamide]

- IC50 [1]: > 54800 nM
- IC50 [2, 3]: 530 nM
SMILES: CC[C@H](NC)C(=O)NC1C(=O)N(C)c2ccccc2N(Cc2c(C)ccc3ccccc23)C1=O (stereo partly drawn) [Example 114, (2S)-N-(1-methyl-5-((2-methylnaphthalen-1-yl)methyl)-2,4-dioxo-2,3,4,5-tetrahydro-1H-benzo[b][1,4]diazepin-3-yl)-2-(methylamino)butanamide]

- IC50 [1]: 46400 nM
- IC50 [2, 3]: 14.8 nM
SMILES: CN[C@@H](C)C(=O)N[C@H]1CN(C(=O)c2ccc(N)cc2)c2cc(Cl)ccc2N(Cc2c(C)ccc3ccccc23)C1=O [Example 121, (S)-N-((S)-5-(4-aminobenzoyl)-7-chloro-1-((2-methylnaphthalen-1-yl)methyl)-2-oxo-2,3,4,5-tetrahydro-1H-benzo[b][1,4]diazepin-3-yl)-2-(methylamino)propanamide hydrochloride]

The next lines start with the compound.

SMILES: CN[C@@H](C)C(=O)N[C@H]1CN(S(=O)(=O)N(C)C)c2ccccc2N(Cc2c(C)ccc3ccccc23)C1=O [Example 100, (S)—N—[(S)-5-Dimethylsulfamoyl-1-(2-methyl-naphthalen-1-ylmethyl)-2-oxo-2,3,4,5-tetrahydro-1H-benzo[b][1,4]diazepin-3-yl]-2-methylamino-propionamide hydrochloride]
- IC50 [1]: > 54800 nM
- IC50 [2, 3]: 249 nM

SMILES: CN[C@@H](C)C(=O)N[C@H]1CN(C(=O)c2ccc(C(C)=O)cc2)c2ccccc2N(CC(=O)Nc2cccc3ccccc23)C1=O [Example 105, (2S)-N-[(3S)-1-(4-acetylbenzoyl)-5-[2-(naphthalen-1-ylamino)-2-oxoethyl]-4-oxo-2,3-dihydro-1,5-benzodiazepin-3-yl]-2-(methylamino)propanamide;2,2,2-trifluoroacetic acid]
- IC50 [1]: 46100 nM
- IC50 [2, 3]: 503 nM

SMILES: CN[C@@H](C)C(=O)N[C@H]1CN2C(=O)CNC(=O)c3ccc4c(c(OC)ccc4c3)CN(C1=O)c1ccccc12 [Example 108, Cyclic-5-[(S)-5-(3-Amino-acetyl)-3-((S)-2-methylamino-propionylamino)-2-oxo-2,3,4,5-tetrahydro-benzo[b][1,4]diazepin-1-ylmethyl]-6-methoxy-naphthalene-2-carboxylic amide hydrochloride]
- IC50 [1]: > 54800 nM
- IC50 [2, 3]: 17.2 nM

SMILES: CN[C@@H](C)C(=O)N[C@H]1CN(C(=O)c2ccc(C(C)=O)cc2)c2ccccc2N(CC(=O)Nc2nc3ccccc3s2)C1=O [Example 109, (2S)-N-[(3S)-1-(4-acetylbenzoyl)-5-[2-(1,3-benzothiazol-2-ylamino)-2-oxoethyl]-4-oxo-2,3-dihydro-1,5-benzodiazepin-3-yl]-2-(methylamino)propanamide;2,2,2-trifluoroacctic acid]
- IC50 [1]: 42300 nM
- IC50 [2, 3]: 121 nM

SMILES: CC[C@H](NC)C(=O)NC1C(=O)N(Cc2c(C)ccc3ccccc23)c2ccccc2N(c2ccccc2)C1=O (stereo partly drawn) [Example 115, (2S)-2-(methylamino)-N-(1-((2-methylnaphthalen-1-yl)methyl)-2,4-dioxo-5-phenyl-2,3,4,5-tetrahydro-1H-benzo[b][1,4]diazcpin-3-yl)butanamide]
- IC50 [1]: > 54800 nM
- IC50 ([2]; IC50 BIR2): 68.7 nM

SMILES: CN[C@@H](C)C(=O)NC1C(=O)N(Cc2c(C)ccc3ccccc23)c2ccccc2N(c2ccccc2)C1=O (stereo partly drawn) [Example 116, (2S)-2-(methylamino)-N-(1-((2-methylnaphthalen-1-yl)methyl)-2,4-dioxo-5-phenyl-2,3,4,5-tetrahydro-1H-benzo[b][1,4]diazepin-3-yl)propanamide]
- IC50 [1]: > 54800 nM
- IC50 ([2]; IC50 BIR2): 39.8 nM

SMILES: CN[C@@H](C)C(=O)N[C@H]1CN(C(=O)c2ccc(C(C)=O)cc2)c2ccccc2N(Cc2nn(-c3ccccc3C#N)c3ccccc23)C1=O [Example 120, (S)-N-((S)-5-(4-acetylbenzoyl)-1-((1-(2-cyanophenyl)-1H-indazol-3-yl)methyl)-2-oxo-2,3,4,5-tetrahydro-1H-benzo[b][1,4]diazepin-3-yl)-2-(methylamino)propanamide 2,2,2-trifluoroacetate]
- IC50 [1]: > 54800 nM
- IC50 [2, 3]: 6.28 nM

SMILES: CN[C@@H](C)C(=O)N[C@H]1CN(C(=O)c2ccc(N)cc2)c2cc(Cl)ccc2N(Cc2c(OC)ccc3c(Br)cccc23)C1=O [Example 123, (S)-N-((S)-5-(4-aminobenzoyl)-1-((5-bromo-2-methoxynaphthalen-1-yl)methyl)-7-chloro-2-oxo-2,3,4,5-tetrahydro-1H-benzo[b][1,4]diazepin-3-yl)-2-(methylamino)propanamide hydrochloride]
- IC50 [1]: 18700 nM
- IC50 [2, 3]: 6.71 nM

SMILES: CN[C@@H](C)C(=O)N[C@H]1CN(C(=O)c2ccc(C(C)=O)cc2)c2cc(Cl)ccc2N(Cc2c(OC)ccc3c(Br)cccc23)C1=O [Example 125, (S)-N-((S)-5-(4-acetylbenzoyl)-1-((5-bromo-2-methoxynaphthalen-1-yl)methyl)-7-chloro-2-oxo-2,3,4,5-tetrahydro-1H-benzo[b][1,4]diazepin-3-yl)-2-(methylamino)propanamide hydrochloride]
- IC50 [1]: 25600 nM
- IC50 [2, 3]: 7.92 nM

SMILES: CN[C@@H](C)C(=O)N[C@H]1CN(C(=O)c2ccc(F)cc2)c2cc(Cl)ccc2N(Cc2c(OC)ccc3c(Br)cccc23)C1=O [Example 126, (S)-N-((S)-1-((5-bromo-2-methoxynaphthalen-1-yl)methyl)-7-chloro-5-(4-fluorobenzoyl)-2-oxo-2,3,4,5-tetrahydro-1H-benzo[b][1,4]diazepin-3-yl)-2-(methylamino)propanamide hydrochloride]
- IC50 [1]: 21500 nM
- IC50 [2, 3]: 17.2 nM

SMILES: CN[C@@H](C)C(=O)NC1C(=O)N(Cc2c(OC)ccc3cc(Br)ccc23)c2ccccc2N(c2ccccc2)C1=O (stereo partly drawn) [Example 128, (2S)-N-(1-((6-bromo-2-methoxynaphthalen-1-yl)methyl)-2,4-dioxo-5-phenyl-2,3,4,5-tetrahydro-1H-benzo[b][1,4]diazepin-3-yl)-2-(methylamino)propanamide]
- IC50 [1]: 44800 nM
- IC50 ([2]; IC50 BIR2): 4.99 nM

SMILES: CN[C@@H](C)C(=O)N[C@H]1CN(C(=O)c2ccc(F)cc2)c2cc(Cl)ccc2N(Cc2c(OC)ccc3cc(Br)ccc23)C1=O [Example 130, (S)-N-((S)-1-((6-bromo-2-methoxynaphthalen-1-yl)methyl)-7-chloro-5-(4-fluorobenzoyl)-2-oxo-2,3,4,5-tetrahydro-1H-benzo[b][1,4]diazepin-3-yl)-2-(methylamino)propanamide hydrochloride]
- IC50 [1]: 16400 nM
- IC50 [2, 3]: 35.6 nM

SMILES: CCN[C@@H](CC)C(=O)NC1C(=O)N(Cc2c(OC)ccc3c(Br)cccc23)c2ccccc2N(c2ccccc2)C1=O (stereo partly drawn) [Example 134, (2S)-N-(1-((5-bromo-2-methoxynaphthalen-1-yl)methyl)-2,4-dioxo-5-phenyl-2,3,4,5-tetrahydro-1H-benzo[b][1,4]diazepin-3-yl)-2-(ethylamino)butanamide]
- IC50 [1]: > 54800 nM
- IC50 ([2]; IC50 BIR2): 32.5 nM

SMILES: CN[C@@H](C)C(=O)N[C@H]1CN(C(=O)c2ccc(C#N)cc2)c2cc(Cl)ccc2N(Cc2c(OCC(F)(F)F)ccc3cc(Br)ccc23)C1=O [Example 135, (S)-N-((S)-1-((6-bromo-2-(2,2,2-trifluoroethoxy)naphthalen-1-yl)methyl)-7-chloro-5-(4-cyanobenzoyl)-2-oxo-2,3,4,5-tetrahydro-1H-benzo[b][1,4]diazepin-3-yl)-2-(methylamino)propanamide hydrochloride]
- IC50 [1]: 36200 nM
- IC50 [2, 3]: 32 nM
